In one test the target is T1, Androgen receptor (Rattus norvegicus, UniProt P15207).
T1 sequence (P15207 whole entry): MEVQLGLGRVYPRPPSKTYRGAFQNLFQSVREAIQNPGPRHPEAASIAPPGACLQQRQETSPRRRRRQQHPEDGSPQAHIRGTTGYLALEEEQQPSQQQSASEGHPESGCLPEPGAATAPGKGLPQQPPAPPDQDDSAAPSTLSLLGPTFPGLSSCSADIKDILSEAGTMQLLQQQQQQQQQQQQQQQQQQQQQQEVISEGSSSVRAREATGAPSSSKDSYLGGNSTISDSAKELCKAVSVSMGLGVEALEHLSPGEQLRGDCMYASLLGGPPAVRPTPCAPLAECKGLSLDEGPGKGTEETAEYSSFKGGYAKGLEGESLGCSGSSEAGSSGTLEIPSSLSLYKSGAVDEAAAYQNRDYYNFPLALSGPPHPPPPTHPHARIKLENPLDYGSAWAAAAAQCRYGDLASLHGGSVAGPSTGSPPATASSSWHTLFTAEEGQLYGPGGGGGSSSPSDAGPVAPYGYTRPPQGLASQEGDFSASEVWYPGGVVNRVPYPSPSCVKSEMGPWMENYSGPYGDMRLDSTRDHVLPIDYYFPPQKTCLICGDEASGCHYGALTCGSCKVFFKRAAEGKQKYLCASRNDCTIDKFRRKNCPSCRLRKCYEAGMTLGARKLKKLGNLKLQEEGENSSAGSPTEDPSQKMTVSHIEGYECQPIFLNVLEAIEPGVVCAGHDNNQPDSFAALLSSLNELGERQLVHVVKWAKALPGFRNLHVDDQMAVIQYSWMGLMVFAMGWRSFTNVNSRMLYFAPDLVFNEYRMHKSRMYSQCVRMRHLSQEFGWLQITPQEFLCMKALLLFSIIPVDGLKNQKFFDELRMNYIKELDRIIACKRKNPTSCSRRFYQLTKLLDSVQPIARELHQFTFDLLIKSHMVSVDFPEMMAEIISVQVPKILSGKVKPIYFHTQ
Format: functional.

The target in a further test is T2, Estrogen receptor (Homo sapiens, UniProt P03372).
T2 sequence (P03372 whole entry): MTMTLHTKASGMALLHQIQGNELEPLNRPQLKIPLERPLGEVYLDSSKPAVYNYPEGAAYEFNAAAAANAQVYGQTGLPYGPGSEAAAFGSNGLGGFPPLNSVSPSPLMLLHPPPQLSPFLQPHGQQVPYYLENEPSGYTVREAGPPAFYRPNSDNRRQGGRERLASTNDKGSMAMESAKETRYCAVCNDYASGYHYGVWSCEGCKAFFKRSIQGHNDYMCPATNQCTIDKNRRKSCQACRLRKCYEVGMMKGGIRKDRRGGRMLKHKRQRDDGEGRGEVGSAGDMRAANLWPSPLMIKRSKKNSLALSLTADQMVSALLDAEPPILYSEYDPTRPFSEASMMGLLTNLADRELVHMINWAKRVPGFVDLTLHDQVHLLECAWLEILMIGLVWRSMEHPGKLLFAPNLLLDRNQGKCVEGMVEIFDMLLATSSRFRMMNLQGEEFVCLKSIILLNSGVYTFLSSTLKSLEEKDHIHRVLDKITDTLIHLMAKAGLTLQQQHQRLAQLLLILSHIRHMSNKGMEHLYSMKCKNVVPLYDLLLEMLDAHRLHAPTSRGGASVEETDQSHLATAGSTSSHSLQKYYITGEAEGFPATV
Format: functional.

The target in another test is T3, Thromboxane A2 receptor (Homo sapiens, UniProt P21731).
T3 sequence (P21731 whole entry): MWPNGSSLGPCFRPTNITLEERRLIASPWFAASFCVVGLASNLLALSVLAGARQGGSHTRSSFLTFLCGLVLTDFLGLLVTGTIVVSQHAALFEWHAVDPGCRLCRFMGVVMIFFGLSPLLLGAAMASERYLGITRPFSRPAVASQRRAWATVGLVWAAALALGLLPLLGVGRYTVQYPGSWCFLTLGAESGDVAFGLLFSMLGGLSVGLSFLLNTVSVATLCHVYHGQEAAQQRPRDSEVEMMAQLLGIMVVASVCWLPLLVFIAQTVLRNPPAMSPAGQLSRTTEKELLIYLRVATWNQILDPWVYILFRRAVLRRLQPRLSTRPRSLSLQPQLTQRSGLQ
Format: functional.

The target of test [1] is Vascular endothelial growth factor receptor 2 (Homo sapiens, UniProt P35968). Format: functional.
Vascular endothelial growth factor receptor 2, sequence (P35968 whole entry): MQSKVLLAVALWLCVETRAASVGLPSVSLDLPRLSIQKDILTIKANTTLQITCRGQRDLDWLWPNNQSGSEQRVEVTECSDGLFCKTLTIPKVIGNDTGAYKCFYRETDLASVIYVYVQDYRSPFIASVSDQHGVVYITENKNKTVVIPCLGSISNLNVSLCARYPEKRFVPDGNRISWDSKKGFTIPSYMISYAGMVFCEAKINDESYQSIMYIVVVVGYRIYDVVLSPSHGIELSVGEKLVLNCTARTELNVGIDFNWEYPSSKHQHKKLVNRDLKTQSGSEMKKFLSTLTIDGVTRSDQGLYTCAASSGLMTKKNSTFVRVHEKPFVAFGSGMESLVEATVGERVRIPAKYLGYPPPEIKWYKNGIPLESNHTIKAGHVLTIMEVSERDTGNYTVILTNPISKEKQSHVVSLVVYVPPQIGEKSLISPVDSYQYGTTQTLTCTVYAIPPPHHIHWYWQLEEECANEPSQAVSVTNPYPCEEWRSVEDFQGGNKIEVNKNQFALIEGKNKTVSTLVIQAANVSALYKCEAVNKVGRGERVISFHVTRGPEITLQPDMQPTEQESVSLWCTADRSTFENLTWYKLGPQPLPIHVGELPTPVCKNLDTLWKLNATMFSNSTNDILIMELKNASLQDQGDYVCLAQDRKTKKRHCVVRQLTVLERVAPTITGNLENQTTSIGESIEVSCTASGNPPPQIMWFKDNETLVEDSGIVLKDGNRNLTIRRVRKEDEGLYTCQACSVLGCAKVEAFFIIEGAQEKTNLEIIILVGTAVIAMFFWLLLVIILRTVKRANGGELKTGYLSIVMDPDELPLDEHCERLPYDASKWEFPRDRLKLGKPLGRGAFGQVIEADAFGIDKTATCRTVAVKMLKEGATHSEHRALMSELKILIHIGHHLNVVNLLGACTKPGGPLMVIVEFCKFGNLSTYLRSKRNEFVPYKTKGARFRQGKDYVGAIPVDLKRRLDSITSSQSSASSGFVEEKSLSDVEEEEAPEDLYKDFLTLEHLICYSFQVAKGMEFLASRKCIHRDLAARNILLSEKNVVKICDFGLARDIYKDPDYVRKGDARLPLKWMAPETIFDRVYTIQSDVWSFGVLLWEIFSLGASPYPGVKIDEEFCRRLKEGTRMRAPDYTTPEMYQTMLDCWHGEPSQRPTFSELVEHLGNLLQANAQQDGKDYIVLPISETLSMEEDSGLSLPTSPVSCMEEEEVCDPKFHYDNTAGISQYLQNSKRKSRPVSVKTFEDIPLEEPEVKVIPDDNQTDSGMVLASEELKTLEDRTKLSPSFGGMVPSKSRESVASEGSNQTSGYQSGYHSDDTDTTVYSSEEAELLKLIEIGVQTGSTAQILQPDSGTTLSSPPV
In test [2] the target is T4, Muscarinic acetylcholine receptor M5 (Homo sapiens, UniProt P08912).
T4 sequence (P08912 whole entry): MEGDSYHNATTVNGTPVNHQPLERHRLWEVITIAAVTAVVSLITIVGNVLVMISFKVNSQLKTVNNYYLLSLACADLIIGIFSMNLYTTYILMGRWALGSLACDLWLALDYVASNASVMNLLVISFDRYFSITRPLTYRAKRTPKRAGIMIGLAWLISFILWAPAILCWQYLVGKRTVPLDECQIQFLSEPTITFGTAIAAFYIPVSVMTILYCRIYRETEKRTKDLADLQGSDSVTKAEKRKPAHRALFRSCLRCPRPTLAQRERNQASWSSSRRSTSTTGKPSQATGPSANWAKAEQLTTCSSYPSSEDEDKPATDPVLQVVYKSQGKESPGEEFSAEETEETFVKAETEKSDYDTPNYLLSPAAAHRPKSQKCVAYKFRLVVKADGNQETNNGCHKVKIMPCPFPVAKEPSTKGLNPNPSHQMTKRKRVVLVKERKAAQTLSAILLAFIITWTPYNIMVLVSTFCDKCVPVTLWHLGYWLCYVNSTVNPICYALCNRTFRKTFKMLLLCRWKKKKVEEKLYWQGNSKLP

Another test deals with Cannabinoid receptor 1 (Homo sapiens, UniProt P21554). Format: functional.
Cannabinoid receptor 1, sequence (P21554 whole entry): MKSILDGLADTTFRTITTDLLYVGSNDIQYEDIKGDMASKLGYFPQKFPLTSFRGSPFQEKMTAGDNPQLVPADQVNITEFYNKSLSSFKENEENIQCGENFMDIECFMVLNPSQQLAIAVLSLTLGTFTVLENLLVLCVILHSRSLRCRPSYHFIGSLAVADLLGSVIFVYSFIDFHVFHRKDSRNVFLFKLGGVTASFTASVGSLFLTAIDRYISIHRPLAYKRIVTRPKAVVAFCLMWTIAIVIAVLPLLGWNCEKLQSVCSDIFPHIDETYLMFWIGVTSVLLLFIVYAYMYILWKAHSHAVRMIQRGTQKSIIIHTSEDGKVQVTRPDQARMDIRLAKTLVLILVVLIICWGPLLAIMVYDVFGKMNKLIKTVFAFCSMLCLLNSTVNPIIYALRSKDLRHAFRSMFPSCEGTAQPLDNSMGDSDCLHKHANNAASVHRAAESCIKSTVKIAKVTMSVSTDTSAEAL

A value given as a limit tells only on which side of the number the result lay.

Experimental findings from ChEMBL document CHEMBL5291721, “A preclinical secondary pharmacology resource illuminates target-adverse drug reaction associations of marketed drugs” (Nat Commun, 2023) are described below.
Also: assay procedure not described here.

On to `CO/N=C(\C(=O)N[C@@H]1C(=O)N2C(C(=O)[O-])=C(C[N+]3(C)CCCC3)CS[C@H]12)c1csc(N)n1`, for which the AC50 (at Androgen receptor; at Estrogen receptor; on Thromboxane A2 receptor; in test [1]) was more than 300 µM each time.

Take `Nc1nc(N)c2nc(-c3ccccc3)c(N)nc2n1`: the half-maximal activity concentration (AC50) (usually the concentration giving half of the maximal activity seen) is more than 30 µM on Androgen receptor; more than 10 µM in test [2]; more than 10 µM on Cannabinoid receptor 1; more than 30 µM on Thromboxane A2 receptor; more than 30 µM in test [1].

Regarding `Oc1ncnc2[nH]ncc12` [ALLOPURINOL], the concentration at half-maximal activity (AC50) (on Thromboxane A2 receptor; in test [1]) was more than 30 µM each time.

For `CC(C)C(=O)Nc1ccc([N+](=O)[O-])c(C(F)(F)F)c1` [FLUTAMIDE], the half-maximal activity concentration (AC50) on Thromboxane A2 receptor is more than 10 µM; in test [1], more than 30 µM.

With `CC(C)Cc1ccc(CC(=O)O)cc1` [IBUFENAC], the concentration at half-maximal activity (AC50) (on Thromboxane A2 receptor; in test [1]) was more than 30 µM in each case.

As for `CC(C)NNC(=O)c1ccncc1` [IPRONIAZID], the AC50 (at Androgen receptor; at Estrogen receptor; at Thromboxane A2 receptor; in test [1]) was more than 30 µM throughout.

For the compound `NC(=O)c1cnccn1` [PYRAZINAMIDE], the AC50 was more than 10 µM at Cannabinoid receptor 1, more than 30 µM at Thromboxane A2 receptor and more than 30 µM in test [1].
